Assay [1] concerns 4T1 triple negative breast cancer cells. As to the kind of experiment: 4T1 subcutaneous tumor model, immunocompromised mice. The note with it: 50 mg/kg i.p., twice a week, five doses, SCID; listed as ferroptocide. It is filed as in vivo. The method, then:
The protocol was approved by the IACUC at the University of Illinois at Urbana-Champaign (Protocol Number: 17192). 9-week old female Balb/C or SCID mice (Charles River) were lightly sedated with i.p. xylazine/ketamine/saline solution. Following sedation, 4T1 murine breast cancer cells suspended in chilled HBSS (100 μL of 4×10^6 cells/mL) were injected subcutaneously into the right flank of shaved and sedated mice using an insulin syringe. On day 8 after inoculation, mice were randomized with 7 mice per group for vehicle or ferroptocide treatment. Vehicle (PEG400) or ferroptocide (50 mg/kg) was administered intraperitoneally as a PEG400 solution twice a week for 5 times. Tumor measurements were performed every 3 or 4 days using a caliper and tumor volume was calculated using the equation (0.5×l×w^2). On day 23 after the 4T1 cells inoculation, mice were sacrificed. Tumors were then surgically removed, and their mass was measured.

The target of the next assay is T1, GSTO1 (Homo sapiens, UniProt P78417).
T1 construct: endogenous in cells; host or cells: HCT 116 (and ES-2) cells
As to the kind of experiment: Biotin-streptavidin pulldown with P29, competition by ferroptocide, LC/LC-MS/MS. It is filed as binding. The note with it: DMSO/ferroptocide spectral count ratio of P29-labeled enriched proteins. The method, then:
(§1) ES-2 and HCT 116 (20×10^6 cells/flask) were plated in T175 flasks and treated with DMSO or 20 µM ferroptocide for 1 hr followed by treatment with 20 μM P29 for 1 hr. Cells were lysed via sonication (6500 g, 4 min) in DPBS and the soluble proteome was isolated after […] (45000 g, 45 min). Bradford assay was used to determine protein concentration. The soluble protein lysates in DPBS (pH 7.4) (500 μL, 2 mg/mL) were treated with biotin-azide (100 μM, 50× stock in DMSO), TCEP (1 mM, 50× fresh stock in water), TBTA ligand (100 μM, 17× stock in DMSO:t-butanol=1:4), and copper(II) sulfate (1 mM, 50× stock in water) followed by incubation at r.t. for 1 hr. Samples were centrifuged (6500 g, 4 min, 4° C.) and the supernatant was discarded. The pellets were resuspended in cold methanol by sonication (2×) and then were solubilized in DPBS containing 1.2% SDS via sonication and heating (90° C., 5 min). A final SDS concentration of 0.2% was achieved after addition of 5 mL of DPBS to the SDS-solubilized proteome samples. The solution was incubated overnight at 4° C. with 100 μL of streptavidin-agarose beads (ThermoFisher, washed 3× with DPBS to remove storage buffer). Samples were rotated at 22° C. for 2 hr before being washed by 5 mL 0.2% SDS/DPBS, 3×5 mL DPBS, and 3×5 mL water. The beads were pelleted by centrifugation (1400×g, 3 min) between washes.
(§2) The washed beads were suspended in 500 μL of 6 M urea/DPBS and 10 mM DTT (from 20× stock in water) and heated for 20 min on a 65° C. heat block. Upon addition of iodoacetamide (20 mM from 50× stock in water), samples were allowed to react at 37° C. for 30 min while shaking. Following reduction and alkylation, the beads were pelleted by centrifugation and resuspended in 200 μL of 2 M urea/DPBS, 1 mM CaCl2) (100× stock in water), and sequencing-grade trypsin (2 μg). The bead digestion occurred overnight at 37° C. while shaking. Next day, the beads were pelleted by centrifugation and washed with 2×50 μL water. The washes were combined with the supernatant from the trypsin digestion step, and after addition of formic acid (15 μL) to each sample, they were stored at −20° C. until mass spectrometry analysis.
(§3) LC/LC-MS/MS analysis was performed on an LTQ-Orbitrap Discovery mass spectrometer (ThermoFisher) coupled to an Agilent 1200 series HPLC. Peptide digests were pressure loaded onto a 250 m fused silica desalting column packed with 4 cm of Aqua C18 reverse phase resin (Phenomenex). The peptides were eluted onto a biphasic column (100 m fused silica with a 5, tip, packed with 10 cm C18 and 4 cm Partisphere strong cation exchange resin (SCX, Whatman) using a gradient 5-100% Buffer B in Buffer A (Buffer A: 95% water, 5% acetonitrile, 0.1% formic acid; Buffer B: 20% water, 80% acetonitrile, 0.1% formic acid). The peptides were then eluted from the SCX onto the C18 resin and into the mass spectrometer using 4 salt steps previously described (Nat. Protoc. 2, 1414-1425, (2007)). The flow rate through the column was set to ˜0.25 μL/min and the spray voltage was set to 2.75 kV. One full MS scan (FTMS) (400-1800 MW) was followed by 8 data dependent scans (ITMS) of the n^th most intense ions. The tandem MS data were searched using the SEQUEST algorithm using a concatenated target/decoy variant of the human UniProt database. A static modification of +57.02146 on cysteine was specified to account for alkylation by iodoacetamide. MS2 spectra matches were assembled into protein identifications and filtered using DTASelect2.0 to generate a list of protein hits with a peptide false-discovery rate of 5%. The mass spectrometry proteomics data have been deposited to the ProteomeXchange Consortium via the PRIDE [1] partner repository with the dataset identifier PXD012805.

For the next assay, the target named is T2, TXNRD1 (Homo sapiens, UniProt Q16881).
T2 construct: HCT 116 cells were pre-treated with ferroptocide or DMSO, followed by treatment with P29; endogenous in cells; host or cells: HCT 116 (and ES-2) cells
Described as above. It is filed as binding. The note with it: DMSO/ferroptocide spectral count ratio of P29-labeled enriched proteins. The method, then:
as §1, §2, §3

Another assay deals with T3, TXNRD2 (Homo sapiens, UniProt Q9NNW7).
T3 construct: HCT 116 cells were pre-treated with ferroptocide or DMSO, followed by treatment with P29; endogenous in cells; host or cells: HCT 116 (and ES-2) cells
The description is as above. The note with it: DMSO/ferroptocide spectral count ratio of P29-labeled enriched proteins. It is filed as binding. The procedure:
as §1, §2, §3

A further assay deals with T4, TXN (Homo sapiens, UniProt P10599).
T4 construct: endogenous in cells; host or cells: HCT 116 (and ES-2) cells
Described as above. It is filed as binding. Particulars: DMSO/ferroptocide spectral count ratio of P29-labeled enriched proteins. The procedure: as §1, §2, §3

A further assay deals with T5, PDP1 (Homo sapiens, UniProt Q9P0J1).
T5 construct: endogenous in cells; host or cells: HCT 116 (and ES-2) cells
The assay is described as above. It is filed as binding. The note with it: DMSO/ferroptocide spectral count ratio of P29-labeled enriched proteins. The method, then:
as §1, §2, §3

Another assay concerns the target T6, TXNRD3 (Homo sapiens, UniProt Q86VQ6).
T6 construct: endogenous in cells; host or cells: HCT 116 (and ES-2) cells
The assay is described as above. It is filed as binding. The note with it: DMSO/ferroptocide spectral count ratio of P29-labeled enriched proteins. The procedure: as §1, §2, §3

The target in the next assay is T7, KEAP1 (Homo sapiens, UniProt Q14145).
T7 construct: endogenous in cells; host or cells: HCT 116 (and ES-2) cells
Described as above. It is filed as binding. The note with it: DMSO/ferroptocide spectral count ratio of P29-labeled enriched proteins. The method, then:
as §1, §2, §3

Another assay addresses T8, PTGES2 (Homo sapiens, UniProt Q9H7Z7).
T8 construct: endogenous in cells; host or cells: HCT 116 (and ES-2) cells
The description is as above. It is filed as binding. The note with it: DMSO/ferroptocide spectral count ratio of P29-labeled enriched proteins. The method, then:
as §1, §2, §3

Another assay deals with T9, PGLS (Homo sapiens, UniProt O95336).
T9 construct: endogenous in cells; host or cells: HCT 116 (and ES-2) cells
The description is as above. It is filed as binding. The note with it: DMSO/ferroptocide spectral count ratio of P29-labeled enriched proteins. The procedure:
as §1, §2, §3

T4 sequence (P10599 whole entry): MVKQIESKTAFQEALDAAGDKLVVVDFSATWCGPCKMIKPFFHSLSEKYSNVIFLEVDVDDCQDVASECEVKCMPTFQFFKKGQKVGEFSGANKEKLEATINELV
T3 sequence (Q9NNW7 37-524): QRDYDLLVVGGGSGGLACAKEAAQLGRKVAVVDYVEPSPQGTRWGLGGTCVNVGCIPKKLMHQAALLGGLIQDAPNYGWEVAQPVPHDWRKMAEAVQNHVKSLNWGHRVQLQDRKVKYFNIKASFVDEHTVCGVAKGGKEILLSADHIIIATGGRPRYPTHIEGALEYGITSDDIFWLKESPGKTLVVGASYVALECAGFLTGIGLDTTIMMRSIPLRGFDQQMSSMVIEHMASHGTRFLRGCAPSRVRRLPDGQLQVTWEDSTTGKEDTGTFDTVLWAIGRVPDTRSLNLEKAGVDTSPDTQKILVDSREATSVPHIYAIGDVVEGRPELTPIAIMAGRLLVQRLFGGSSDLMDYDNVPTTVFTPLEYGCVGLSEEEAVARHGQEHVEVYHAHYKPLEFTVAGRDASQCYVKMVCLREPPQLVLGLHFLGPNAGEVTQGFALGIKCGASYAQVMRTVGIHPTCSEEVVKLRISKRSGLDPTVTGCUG
T8 sequence (Q9H7Z7 whole entry): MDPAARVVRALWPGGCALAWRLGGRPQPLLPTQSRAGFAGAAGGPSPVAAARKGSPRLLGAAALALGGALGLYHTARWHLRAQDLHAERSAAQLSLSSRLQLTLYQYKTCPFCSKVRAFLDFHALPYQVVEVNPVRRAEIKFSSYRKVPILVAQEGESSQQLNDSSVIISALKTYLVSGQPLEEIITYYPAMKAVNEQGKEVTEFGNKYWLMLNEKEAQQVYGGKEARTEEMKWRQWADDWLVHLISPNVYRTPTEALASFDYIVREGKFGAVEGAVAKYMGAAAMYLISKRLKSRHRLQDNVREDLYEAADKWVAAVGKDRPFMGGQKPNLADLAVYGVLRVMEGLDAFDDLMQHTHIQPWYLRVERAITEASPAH
T2 sequence (Q16881 151-649 limits assumed): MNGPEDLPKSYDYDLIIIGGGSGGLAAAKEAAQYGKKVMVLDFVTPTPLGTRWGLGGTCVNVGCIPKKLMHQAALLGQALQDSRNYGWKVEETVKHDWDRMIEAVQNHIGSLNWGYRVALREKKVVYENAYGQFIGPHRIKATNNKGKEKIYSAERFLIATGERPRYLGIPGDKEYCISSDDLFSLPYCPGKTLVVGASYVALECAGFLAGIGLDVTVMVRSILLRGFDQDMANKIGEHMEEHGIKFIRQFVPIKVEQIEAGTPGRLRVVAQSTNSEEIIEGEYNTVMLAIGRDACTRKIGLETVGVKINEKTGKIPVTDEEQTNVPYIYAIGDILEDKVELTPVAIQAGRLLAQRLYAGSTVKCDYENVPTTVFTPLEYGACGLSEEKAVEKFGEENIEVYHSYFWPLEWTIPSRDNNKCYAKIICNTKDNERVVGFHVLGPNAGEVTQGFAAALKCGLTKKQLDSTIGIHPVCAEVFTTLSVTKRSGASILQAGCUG
T1 sequence (P78417 whole entry): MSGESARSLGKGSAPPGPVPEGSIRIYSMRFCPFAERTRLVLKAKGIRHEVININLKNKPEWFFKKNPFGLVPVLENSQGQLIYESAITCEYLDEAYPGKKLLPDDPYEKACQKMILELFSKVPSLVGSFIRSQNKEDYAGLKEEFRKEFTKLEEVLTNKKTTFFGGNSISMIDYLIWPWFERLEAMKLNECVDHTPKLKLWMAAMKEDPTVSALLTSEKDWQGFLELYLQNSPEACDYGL
T9 sequence (O95336 whole entry): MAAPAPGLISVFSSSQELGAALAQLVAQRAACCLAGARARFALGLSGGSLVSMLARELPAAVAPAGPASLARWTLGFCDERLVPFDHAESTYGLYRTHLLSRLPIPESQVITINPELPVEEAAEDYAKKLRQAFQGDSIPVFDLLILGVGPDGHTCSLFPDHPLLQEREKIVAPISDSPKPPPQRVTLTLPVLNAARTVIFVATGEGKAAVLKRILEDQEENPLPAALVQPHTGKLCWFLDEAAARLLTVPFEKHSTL
T5 sequence (Q9P0J1 72-537): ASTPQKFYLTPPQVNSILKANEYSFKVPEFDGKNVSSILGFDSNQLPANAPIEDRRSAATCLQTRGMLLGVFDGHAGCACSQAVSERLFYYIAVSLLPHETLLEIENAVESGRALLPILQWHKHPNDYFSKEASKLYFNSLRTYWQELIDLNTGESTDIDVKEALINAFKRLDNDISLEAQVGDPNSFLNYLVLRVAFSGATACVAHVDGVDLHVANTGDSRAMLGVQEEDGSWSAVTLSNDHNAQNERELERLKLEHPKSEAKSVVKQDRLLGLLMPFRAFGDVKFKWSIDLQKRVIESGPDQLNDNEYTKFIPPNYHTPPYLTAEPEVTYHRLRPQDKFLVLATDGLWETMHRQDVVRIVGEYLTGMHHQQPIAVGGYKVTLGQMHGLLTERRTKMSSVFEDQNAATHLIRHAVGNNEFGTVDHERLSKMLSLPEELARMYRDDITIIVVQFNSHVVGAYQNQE
T7 sequence (Q14145 whole entry): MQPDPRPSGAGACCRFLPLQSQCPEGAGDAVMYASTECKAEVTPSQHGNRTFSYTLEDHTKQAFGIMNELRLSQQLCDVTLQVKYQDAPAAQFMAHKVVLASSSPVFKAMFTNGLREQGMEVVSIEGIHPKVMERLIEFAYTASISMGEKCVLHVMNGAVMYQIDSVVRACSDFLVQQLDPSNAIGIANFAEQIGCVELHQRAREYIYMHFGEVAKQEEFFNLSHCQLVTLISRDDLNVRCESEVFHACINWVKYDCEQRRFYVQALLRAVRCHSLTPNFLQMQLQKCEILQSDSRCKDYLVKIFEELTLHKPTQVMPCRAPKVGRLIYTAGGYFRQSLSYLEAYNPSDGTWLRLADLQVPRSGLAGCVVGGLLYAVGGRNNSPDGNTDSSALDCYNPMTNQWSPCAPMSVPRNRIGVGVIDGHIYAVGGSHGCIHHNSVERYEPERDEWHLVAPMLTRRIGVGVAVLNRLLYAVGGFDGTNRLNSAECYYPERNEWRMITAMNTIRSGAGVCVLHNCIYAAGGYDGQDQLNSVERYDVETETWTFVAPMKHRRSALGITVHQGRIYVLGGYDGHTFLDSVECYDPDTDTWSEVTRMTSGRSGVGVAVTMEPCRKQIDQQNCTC
T6 sequence (Q86VQ6 whole entry): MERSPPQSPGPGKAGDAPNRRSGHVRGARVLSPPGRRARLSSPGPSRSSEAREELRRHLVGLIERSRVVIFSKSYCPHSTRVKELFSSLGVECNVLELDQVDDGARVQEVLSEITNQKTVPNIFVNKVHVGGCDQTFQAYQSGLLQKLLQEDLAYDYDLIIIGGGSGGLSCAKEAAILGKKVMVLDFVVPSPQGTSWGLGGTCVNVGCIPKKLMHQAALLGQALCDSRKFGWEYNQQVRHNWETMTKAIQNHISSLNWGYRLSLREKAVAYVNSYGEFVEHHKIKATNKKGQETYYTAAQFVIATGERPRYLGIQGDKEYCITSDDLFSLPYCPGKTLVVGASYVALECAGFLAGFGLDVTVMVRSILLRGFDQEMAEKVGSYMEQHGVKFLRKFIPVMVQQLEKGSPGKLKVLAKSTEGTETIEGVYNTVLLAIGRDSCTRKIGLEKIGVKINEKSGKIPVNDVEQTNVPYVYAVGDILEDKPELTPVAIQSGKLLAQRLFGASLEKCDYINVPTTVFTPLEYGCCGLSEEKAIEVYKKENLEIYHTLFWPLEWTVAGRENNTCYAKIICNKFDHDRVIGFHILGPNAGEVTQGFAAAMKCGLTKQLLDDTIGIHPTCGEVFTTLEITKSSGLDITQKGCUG

Turning to `C[C@@H]1CC[C@@]23C[C@H](O)C(=O)[C@@]2(O)[C@]1(C)[C@H](OC(=O)CCl)C[C@@H](C1=CCn2c(=O)n(-c4ccccc4)c(=O)n2C1)[C@@H]3C` [Compound P18, ferroptocide], the “effect on subcutaneous 4T1 tumor growth (in words)” value in assay [1] was “no effect”. Also, the “Fold Change” value worked out at 3.6 at GSTO1; 4.9 on TXNRD1; 2 at TXNRD2; 11.1 on TXN; 3.7 on PDP1; 7.4 at TXNRD3. In addition, the results for the “Fold Change” value on KEAP1, on PTGES2 and on PGLS were 3.1, 18 and 2.7, respectively.

The values are drawn from patent US20220089602A1, “COMPOUNDS THAT INDUCE FERROPTIC CELL DEATH” (The Board of Trustees of the University of Illinois, priority 2019, published 2022).
